The values below come from ChEMBL document CHEMBL1144517, “Structural requirement of chalcones for the inhibitory activity of interleukin-5” (Bioorg Med Chem, 2007).

Where only a bound is given, the exact number is not on record here.

Assay [1] in a line: Inhibition of IL5 in mouse Y16 cells. It is filed as functional. On the set-up: concentration or dose not given beside the values.
Assay [2] is described as follows: Inhibition of IL5 in mouse Y16 cells […]. It is filed as functional, cell-based.

For the compound `O=C(/C=C/c1ccc(O)cc1)c1ccccc1O`, the Inhibition in assay [1] was found to be 50%. For the same compound, the IC50 in assay [2] stood at 48.2 µM.
In the same order, the values of `CCc1ccc(/C=C/C(=O)c2c(O)cccc2OCC2CCCCC2)cc1` are 82.3% and 27.9 µM.
In the same order, the values of `O=C(/C=C/c1ccc(CO)cc1)c1c(O)cccc1OCC1CCCCC1` are 99.3% and 6.4 µM.
In the same order, the values of `O=Cc1ccc(/C=C/C(=O)c2c(O)cccc2OCC2CCCCC2)cc1` are 99.8% and 4.5 µM.
Turning to `O=C(O)c1cccc(/C=C/C(=O)c2c(O)cccc2OCC2CCCCC2)c1`, the Inhibition in assay [1] turned out to be 98.1%. The compound also showed an IC50 in assay [2] of 14.1 µM.
For the compound `O=C(O)c1ccccc1/C=C/C(=O)c1c(O)cccc1OCC1CCCCC1`, the Inhibition in assay [1] is listed as -18.9%. This compound also showed an IC50 in assay [2] of over 50 µM.
`COCOc1ccc(/C=C/C(=O)c2c(O)cccc2OCc2ccccc2)cc1`: the Inhibition in assay [1] was 47.8%. In assay [2], this compound returned a half-maximal inhibitory concentration (IC50) of over 50 µM.
In the same order, the values of `O=C(/C=C/c1ccc(O)cc1)c1ccc(OCC2CCCCC2)cc1O` are 59.7% and 21.4 µM.
For the compound `O=C(O)c1ccc(/C=C/C(=O)c2c(O)cccc2OCC2CCCCC2)cc1`, the Inhibition in assay [1] turned out to be 100%. This compound also came in with an IC50 in assay [2] of 9.4 µM.
As for `Nc1ccc(/C=C/C(=O)c2c(O)cccc2OCC2CCCCC2)cc1`, in assay [1], the Inhibition came out at 16.4%. Besides, in assay [2], the 50% inhibitory concentration (IC50) was over 50 µM.
In the same order, the values of `O=C(O)c1ccc(/C=C/C(=O)c2ccccc2O)cc1` are -18.7% and over 50 µM.
Turning to `O=C(/C=C/c1ccccc1)c1c(O)cccc1OCC1CCCCC1`, the Inhibition in assay [1] was 99.6%. The compound further displayed a half-inhibitory concentration (IC50) in assay [2] of 14.3 µM.
In the same order, the values of `COC(=O)c1ccc(/C=C/C(=O)c2c(O)cccc2OCC2CCCCC2)cc1` are 98.6% and 3.9 µM.
Take `NS(=O)(=O)c1ccc(/C=C/C(=O)c2c(O)cccc2OCc2ccccc2)cc1`: the Inhibition in assay [1] is 99.5%. The same compound registered a 50% inhibitory concentration (IC50) in assay [2] of 7 µM.
In the case of `O=C(/C=C/c1ccc(O)cc1)c1c(O)cccc1OCC1CCCCC1`, the Inhibition in assay [1] was 99%. Moreover, in assay [2], the IC50 turned out to be 12.6 µM.
With `O=C(O)c1ccc(CCC(=O)c2c(O)cccc2OCC2CCCCC2)cc1`, in assay [1], the Inhibition worked out at 15.6%. In assay [2], this compound gave an IC50 of over 50 µM.
In the same order, the values of `O=C(/C=C/c1ccc(O)cc1)c1c(O)cccc1OCc1ccccc1` are 78.8% and 25.3 µM.
In the case of `O=C(O)c1ccc(/C=C/C(=O)c2ccc(OCC3CCCCC3)cc2O)cc1`, the Inhibition in assay [1] was 100%. This compound also showed an IC50 in assay [2] of 10.8 µM.
In the same order, the values of `NS(=O)(=O)c1ccc(/C=C/C(=O)c2c(O)cccc2OCC2CCCCC2)cc1` are 99.5% and 1.8 µM.
In the same order, the values of `CC(=O)Nc1ccc(/C=C/C(=O)c2c(O)cccc2OCC2CCCCC2)cc1` are 99.2% and 6.4 µM.
As to `O=C(/C=C/c1ccc(Cl)cc1)c1c(O)cccc1OCC1CCCCC1`, the Inhibition in assay [1] stood at 98.8%. The same compound yielded an IC50 in assay [2] of 7.1 µM.
In the same order, the values of `O=C(/C=C/c1ccc(O)cc1)c1ccc(OCc2ccccc2)cc1O` are 77.6% and 28.8 µM.
In the same order, the values of `O=C(O)c1ccc(/C=C/C(=O)c2ccc(OCc3ccccc3)cc2O)cc1` are 100% and 14.2 µM.
In the same order, the values of `O=C(O)c1ccc(/C=C/C(=O)c2c(O)cccc2OCc2ccccc2)cc1` are 100% and 10.2 µM.
Take `O=C(O)c1ccc(/C=C/C(=O)c2ccccc2OCc2ccccc2)cc1`: in assay [1], the Inhibition turned out to be 15%. The same compound had a concentration for half-maximal inhibition (IC50) in assay [2] of over 50 µM.
Turning to `COCOc1ccc(/C=C/C(=O)c2c(O)cccc2OCC2CCCCC2)cc1`, the Inhibition in assay [1] worked out at 13%. The 50% inhibitory concentration (IC50) in assay [2] was over 50 µM.
